Where two headings read alike, the source gives them in different places. Where a SMILES comes first, the peptide text is derived from it. Bridges are numbered along the chain shown (N, C = ends). [ ]: non-standard residue; d: D form. The star is where a group is joined. DOTA = O=C(O)CN1CCN(CC(=O)O)CCN(CC(=O)*)CCN(CC(=O)O)CC1; Pro(cis-4-F) = O=C(O)[C@@H]1C[C@H](F)CN1; Hyp = O=C(O)[C@@H]1C[C@@H](O)CN1; αMeF = C[C@](N)(Cc1ccccc1)C(=O)O; 4Pal = N[C@@H](Cc1ccncc1)C(=O)O; Pentanoyl(4-Me) = CC(C)CCC(=O)*; Cit = NC(=O)NCCC[C@H](N)C(=O)O; NMeL = CN[C@@H](CC(C)C)C(=O)O; Butoxycarbonyl = CCCCOC(=O)*; Phg = N[C@H](C(=O)O)c1ccccc1; Tle = CC(C)(C)[C@H](N)C(=O)O; NMeV = CN[C@H](C(=O)O)C(C)C; Propanoyl(3-OH) = O=C(CCO)*; hSer = N[C@@H](CCO)C(=O)O; Ac6c = NC1(C(=O)O)CCCCC1; Nle = CCCC[C@H](N)C(=O)O; Nva = CCC[C@H](N)C(=O)O; Dap = NC[C@H](N)C(=O)O; Pentanoyl = CCCCC(=O)*; Aib = CC(C)(N)C(=O)O
Legend:
[1] = molecular target: T1, uPAR-expressing HEC-265 human endometrial adenocarcinoma cells (Homo sapiens, UniProt Q03405); test: Competitive FACS binding assay; settings: pIC50 category of FACS binding
T1 construct: Cell surface uPAR-expressing HEC-265 human endometrial adenocarcinoma cells; host or cells: HEC-265
T1 sequence (Q03405 23-335): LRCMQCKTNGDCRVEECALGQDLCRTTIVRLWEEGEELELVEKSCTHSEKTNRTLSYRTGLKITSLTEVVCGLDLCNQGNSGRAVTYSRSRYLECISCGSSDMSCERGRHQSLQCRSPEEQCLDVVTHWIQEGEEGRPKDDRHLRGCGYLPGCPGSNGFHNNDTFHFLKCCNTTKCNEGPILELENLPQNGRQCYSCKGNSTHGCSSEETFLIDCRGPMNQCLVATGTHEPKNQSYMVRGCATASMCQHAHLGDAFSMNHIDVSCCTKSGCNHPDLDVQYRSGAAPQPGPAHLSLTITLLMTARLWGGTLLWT
Method in brief: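 HEC-265 cells incubated 1 h at 4 °C with 10 nM biotinylated uPAR peptide tracer plus increasing test compound, then stained with APC-streptavidin on ice. Median APC fluorescence by flow cytometry; 4PL fit gives pIC50.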

human uPAR (uPAR-Fc) = molecular target: T2, human uPAR (uPAR-Fc) (Homo sapiens, UniProt Q03405); test: Surface plasmon resonance (SPR) assay, single cycle kinetics; format: binding; settings: pKD category for uPAR SPR activity assay, uPAR-Fc on Protein A-Chip, 25°C, read-out: pKD CAT (converted)
T2 construct: comprising amino acids Leu23-Arg303 according to UniProt entry Q03405.1; purchased R&D Systems 10378-UK-100
T2 sequence (Q03405 23-303): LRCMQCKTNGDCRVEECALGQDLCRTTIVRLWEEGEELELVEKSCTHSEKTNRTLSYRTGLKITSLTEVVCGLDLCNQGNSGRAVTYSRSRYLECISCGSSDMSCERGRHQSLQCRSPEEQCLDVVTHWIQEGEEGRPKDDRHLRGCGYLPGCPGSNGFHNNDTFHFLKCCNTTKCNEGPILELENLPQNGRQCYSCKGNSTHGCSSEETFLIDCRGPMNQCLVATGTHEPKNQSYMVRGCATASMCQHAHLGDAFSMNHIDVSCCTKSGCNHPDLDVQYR
Method in brief: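 uPAR-Fc (Leu23-Arg303 extracellular domains, human IgG1 Fc) captured on Protein A chip to ~2000 RU; single-cycle kinetics at 25°C in HEPES running buffer pH 7.4 with 0.1% DMSO. KD from double-referenced sensorgrams fitted to 1:1 Langmuir model, reported as pKD.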

Compound	IC50 [1] [nM]	Kd (human uPAR (uPAR-Fc); single cycle kinetics) [nM]	Kd (human uPAR (uPAR-Fc)) [nM]
CCCCOC(=O)N[C@H]1CSSC[C@@H](C(N)=O)NC(=O)[C@H](CCO)NC(=O)[C@H]([C@@H](C)CC)NC(=O)[C@@H]2C[C@@H](O)CN2C(=O)[C@@H]2C[C@H](F)CN2C(=O)[C@H](Cc2ccccc2)NC(=O)[C@H](Cc2ccc(O)cc2)NC(=O)[C@H](CCCCNC(=O)CN2CCN(CC(=O)O)CCN(CC(=O)O)CCN(CC(=O)O)CC2)NC(=O)[C@H]([C@@H](C)O)NC1=O [UPAR-368, Butoc-[Cys-Thr-Lys(DOTA)-Tyr-Phe-4Cfp-Hyp-Ile-Hse-Cys]-NH2] (Butoxycarbonyl-CTK(DOTA)YF[Pro(cis-4-F)][Hyp]I[hSer]C-NH2; disulfide 1-10)	≤ 10	10 to 100	
CCCC[C@@H]1NC(=O)[C@H](CCCNC(=N)N)NC(=O)[C@@H](NC(=O)[C@H](CC(C)C)NC(=O)[C@H](CC(=O)O)NC(C)=O)CSSC[C@@H](C(N)=O)NC(=O)[C@H](CC(C)C)NC(=O)[C@H]([C@@H](C)CC)NC(=O)C(C)(C)NC(=O)[C@@H]2CCCN2C(=O)[C@H](Cc2ccccc2)NC(=O)[C@H](Cc2ccc(O)cc2)NC1=O [UPAR-440, Ac-Asp-Leu-[Cys-Arg-Nle-Tyr-Phe-Pro-Aib-Ile-Leu-Cys]-NH2] (Ac-DLCR[Nle]YFP[Aib]ILC-NH2; disulfide 3-12)	≤ 10	< 1.58	
CCCCC(=O)N[C@H]1CSSC[C@@H](C(N)=O)NC(=O)[C@H](CCC)NC(=O)[C@H]([C@@H](C)CC)NC(=O)[C@@H]2C[C@@H](O)CN2C(=O)[C@@H]2CCCN2C(=O)[C@](C)(Cc2ccccc2)NC(=O)[C@H](Cc2ccc(O)cc2)NC(=O)[C@H](CCCCNC(=O)CN2CCN(CC(=O)O)CCN(CC(=O)O)CCN(CC(=O)O)CC2)NC(=O)[C@H](CCCNC(N)=O)NC1=O [UPAR-416, Pent-[Cys-Cit-Lys(DOTA)-Tyr-Amf-Pro-Hyp-Ile-Nva-Cys]-NH2] (Pentanoyl-C[Cit]K(DOTA)Y[αMeF]P[Hyp]I[Nva]C-NH2; disulfide 1-10)	≥ 126	> 100	
CCCCOC(=O)N[C@H]1CSSC[C@@H](C(N)=O)NC(=O)[C@H](CCC)NC(=O)[C@H]([C@@H](C)CC)NC(=O)[C@@H]2C[C@@H](O)CN2C(=O)[C@@H]2C[C@H](F)CN2C(=O)[C@H](Cc2ccccc2)NC(=O)[C@H](Cc2ccc(O)cc2)NC(=O)[C@H](CNC(=O)CN2CCN(CC(=O)O)CCN(CC(=O)O)CCN(CC(=O)O)CC2)NC(=O)[C@H]([C@@H](C)O)NC1=O [UPAR-455, Butoc-[Cys-Thr-Dap(DOTA)-Tyr-Phe-4Cfp-Hyp-Ile-Nva-Cys]-NH2] (Butoxycarbonyl-CT[Dap](DOTA)YF[Pro(cis-4-F)][Hyp]I[Nva]C-NH2; disulfide 1-10)	≤ 10	< 1.58	
CCCC[C@@H]1NC(=O)[C@H](CCCNC(=N)N)NC(=O)[C@@H](NC(=O)[C@H](CC(C)C)NC(=O)[C@H](CC(=O)O)NC(C)=O)CSSC[C@@H](C(N)=O)NC(=O)[C@@H](CC(C)C)NC(=O)[C@H]([C@@H](C)CC)NC(=O)[C@H](C)NC(=O)[C@@H]2CCCN2C(=O)[C@H](Cc2ccccc2)NC(=O)[C@H](Cc2ccc(O)cc2)NC1=O [UPAR-137, Ac-Asp-Leu-[Cys-Arg-Nle-Tyr-Phe-Pro-Ala-Ile-leu-Cys]-NH2] (Ac-DLCR[Nle]YFPAI[dL]C-NH2; disulfide 3-12)	12.6 to 31.6		1.58 to 10
CC[C@H](C)[C@@H]1NC(=O)[C@H](C)NC(=O)[C@@H]2CCCN2C(=O)[C@H](Cc2ccccc2)NC(=O)[C@H](Cc2ccc(O)cc2)NC(=O)[C@H](CCC(N)=O)NC(=O)[C@H](CCCNC(=N)N)NC(=O)[C@@H](NC(=O)[C@H](CC(C)C)NC(=O)[C@H](CC(=O)O)NC(C)=O)CSSC[C@@H](C(N)=O)NC(=O)[C@H](CC(C)C)NC1=O [UPAR-290, Ac-Asp-Leu-[Cys-Arg-Gln-Tyr-Phe-Pro-Ala-Ile-Leu-Cys]-NH2] (Ac-DLCRQYFPAILC-NH2; disulfide 3-12)	≤ 10		< 1.58
CC[C@H](C)[C@@H]1NC(=O)[C@@H](C)NC(=O)[C@@H]2CCCN2C(=O)[C@H](Cc2ccccc2)NC(=O)[C@H](Cc2ccc(O)cc2)NC(=O)[C@H](CCC(N)=O)NC(=O)[C@H](CCCNC(N)=O)NC(=O)[C@@H](NC(=O)CCO)CSSC[C@@H](C(N)=O)NC(=O)[C@H](CC(C)C)NC1=O [UPAR-272, HPA-[Cys-Cit-Gln-Tyr-Phe-Pro-ala-Ile-Leu-Cys]-NH2] ({Propanoyl(3-OH)}-C[Cit]QYFP[dA]ILC-NH2; disulfide 1-10)	39.8 to 100		> 100
CCCCC(=O)N[C@H]1CSSC[C@@H](C(N)=O)NC(=O)[C@H](CCC)NC(=O)[C@H]([C@@H](C)CC)NC(=O)[C@@H]2C[C@@H](O)CN2C(=O)[C@@H]2CCCN2C(=O)[C@H](Cc2ccncc2)NC(=O)[C@H](Cc2ccc(O)cc2)NC(=O)[C@H](CCCCNC(=O)CN2CCN(CC(=O)O)CCN(CC(=O)O)CCN(CC(=O)O)CC2)NC(=O)[C@H](CCCNC(N)=O)NC1=O [UPAR-222, Pent-[Cys-Cit-Lys(DOTA)-Tyr-Ppa-Pro-Hyp-Ile-Nva-Cys]-NH2] (Pentanoyl-C[Cit]K(DOTA)Y[4Pal]P[Hyp]I[Nva]C-NH2; disulfide 1-10)	≤ 10		1.58 to 10
CCCCC(=O)N[C@H]1CSSC[C@@H](C(N)=O)NC(=O)[C@H](CCC)NC(=O)[C@H]([C@@H](C)CC)NC(=O)[C@@H]2C[C@@H](O)CN2C(=O)[C@@H]2CCCN2C(=O)[C@H](Cc2ccccc2)NC(=O)[C@H](Cc2ccc(O)cc2)NC(=O)[C@H](CCC(N)=O)NC(=O)[C@@H]2CCCN2C1=O [UPAR-361, Pent-[Cys-Pro-Gln-Tyr-Phe-Pro-Hyp-Ile-Nva-Cys]-NH2] (Pentanoyl-CPQYFP[Hyp]I[Nva]C-NH2; disulfide 1-10)	≤ 10	< 1.58	
CC(C)CCC(=O)N[C@H]1CSSC[C@@H](C(N)=O)NC(=O)[C@H](CC(C)C)NC(=O)[C@H](C(C)(C)C)NC(=O)[C@@H](C)NC(=O)[C@@H]2CCCN2C(=O)[C@H](Cc2ccccc2)NC(=O)[C@H](Cc2ccc(O)cc2)NC(=O)[C@H](CCC(N)=O)NC(=O)[C@H](CCCNC(N)=O)NC1=O [UPAR-201, iHex-[Cys-Cit-Gln-Tyr-Phe-Pro-ala-Tle-Leu-Cys]-NH2] ({Pentanoyl(4-Me)}-C[Cit]QYFP[dA][Tle]LC-NH2; disulfide 1-10)	39.8 to 100		10 to 100

Other lines, results leading:

IC50 [1] [nM]	Kd (human uPAR (uPAR-Fc); single cycle kinetics) [nM]	Kd (human uPAR (uPAR-Fc)) [nM]	Compound
≤ 10	< 1.58		CCCCC(=O)N[C@H]1CSSC[C@@H](C(N)=O)NC(=O)[C@H](CCC)NC(=O)[C@H](c2ccccc2)NC(=O)[C@@H]2C[C@@H](O)CN2C(=O)[C@@H]2CCCN2C(=O)[C@H](Cc2ccccc2)NC(=O)[C@H](Cc2ccc(O)cc2)NC(=O)[C@H](CCC(N)=O)NC(=O)[C@H](CCCNC(=N)N)NC1=O [UPAR-437, Pent-[Cys-Arg-Gln-Tyr-Phe-Pro-Hyp-Phg-Nva-Cys]-NHz] (Pentanoyl-CRQYFP[Hyp][Phg][Nva]C-NH2; disulfide 1-10)
≤ 10	10 to 100		CC[C@H](C)[C@@H]1NC(=O)[C@@H](CCCCNC(=O)CN2CCN(CC(=O)O)CCN(CC(=O)O)CCN(CC(=O)O)CC2)NC(=O)[C@@H]2CCCN2C(=O)[C@H](Cc2ccccc2)NC(=O)[C@H](Cc2ccc(O)cc2)NC(=O)[C@H](CCC(N)=O)NC(=O)[C@H](CCCNC(=N)N)NC(=O)[C@@H](NC(=O)CCC(C)C)CSSC[C@@H](C(N)=O)NC(=O)[C@H](CC(C)C)NC1=O [UPAR-367, iHex-[Cys-Arg-Gln-Tyr-Phe-Pro-lys(DOTA)-Ile-Leu-Cys]-NH2] ({Pentanoyl(4-Me)}-CRQYFP[dK](DOTA)ILC-NH2; disulfide 1-10)
≥ 126	> 100		CCCCC(=O)N[C@H]1CSSC[C@@H](C(N)=O)NC(=O)[C@H](CCC)NC(=O)[C@H]([C@@H](C)CC)NC(=O)[C@@H]2C[C@@H](O)CN2C(=O)[C@H](C(C)C)N(C)C(=O)[C@H](Cc2ccccc2)NC(=O)[C@H](Cc2ccc(O)cc2)NC(=O)[C@H](CCC(N)=O)NC(=O)[C@H](CCCNC(=N)N)NC1=O [UPAR-470, Pent-[Cys-Arg-Gln-Tyr-Phe-Nmv-Hyp-Ile-Nva-Cys]-NH2] (Pentanoyl-CRQYF[NMeV][Hyp]I[Nva]C-NH2; disulfide 1-10)
≤ 10	< 1.58		CCC[C@@H]1NC(=O)[C@H]([C@@H](C)CC)NC(=O)[C@@H]2C[C@@H](O)CN2C(=O)[C@@H]2CCCN2C(=O)[C@H](Cc2ccccc2)NC(=O)[C@H](Cc2ccc(O)cc2)NC(=O)[C@H](CCC(N)=O)NC(=O)[C@H](CCCNC(=N)N)NC(=O)[C@@H](NC(=O)[C@H](CC(C)C)N(C)C(C)=O)CSSC[C@@H](C(N)=O)NC1=O [UPAR-483, Ac-Nml-[Cys-Arg-Gln-Tyr-Phe-Pro-Hyp-Ile-Nva-Cys]-NH2] (Ac-[NMeL]CRQYFP[Hyp]I[Nva]C-NH2; disulfide 2-11)
39.8 to 100		10 to 100	CCCCC(=O)N[C@H]1CSSC[C@@H](C(N)=O)NC(=O)[C@H](CCC)NC(=O)[C@H]([C@@H](C)CC)NC(=O)[C@@H]2C[C@@H](O)CN2C(=O)[C@H](CCCCN)NC(=O)[C@H](Cc2ccccc2)NC(=O)[C@H](Cc2ccc(O)cc2)NC(=O)[C@H](CCC(N)=O)NC(=O)[C@H](CCCNC(=N)N)NC1=O [UPAR-298, Pent-[Cys-Arg-Gln-Tyr-Phe-Lys-Hyp-Ile-Nva-Cys]-NH2] (Pentanoyl-CRQYFK[Hyp]I[Nva]C-NH2; disulfide 1-10)
≤ 10	< 1.58		CCC[C@@H]1NC(=O)[C@H]([C@@H](C)CC)NC(=O)[C@@H]2C[C@@H](O)CN2C(=O)[C@@H]2CCCN2C(=O)[C@H](Cc2ccccc2)NC(=O)[C@H](Cc2ccc(O)cc2)NC(=O)[C@H](CCC(N)=O)NC(=O)[C@H](CCCNC(=N)N)NC(=O)[C@@H](NC(=O)C2(NC(C)=O)CCCCC2)CSSC[C@@H](C(N)=O)NC1=O [UPAR-482, Ac-Egz-[Cys-Arg-Gln-Tyr-Phe-Pro-Hyp-Ile-Nva-Cys]-NH2] (Ac-[Ac6c]CRQYFP[Hyp]I[Nva]C-NH2; disulfide 2-11)

From patent EP4610269A1, “UROKINASE PLASMINOGEN ACTIVATOR SURFACE RECEPTOR (UPAR) LIGANDS FOR DIAGNOSTIC OR THERAPEUTIC USE” (3B Pharmaceuticals GmbH, priority 2024, dated 2025)
